{"source": "patent US20100041089A1", "about": "“IMPROVED METHOD FOR DETECTING CHEMICAL […]” (priority 2006, published 2010)", "test_system": "yeast genes (expressed mRNA)", "experiment": "DNA chip measurement of expressed mRNA of yeast genes after culture with a toxic chemical substance", "type": "cell-based, Saccharomyces cerevisiae S288C", "conditions": "for level of expressed mRNA in the presence of chemical substance / level in the absence of chemical substance: cultured two hours with the chemical substance; for The level of expressed mRNA in the presence of chemical substance/The level of expressed mRNA in the absence of chemical substance: cultured two hours with substance", "protocol": "Yeast (Saccharomyces cerevisiae S288C (a SUC2mal mel gap2 CUP1)) were cultured at 25° C. on YPD medium (yeast extract 1%, polypeptone 2%, glucose 2%). One of toxic chemical substances was added to the cell at logarithmic growth phase, and the cell was further cultured for two hours. Cell was cultured without any chemical substance in the same condition, and was used as a control. Concentrations of the chemical substances were defined to inhibit the growth of the yeast but not lead to death.\nAfter the completion of cultivation, the culture was centrifuged to collect the cells. To the cells, sodium acetate buffer (50 mM sodium acetate, 10 mM EDTA, 1% SDS) was added, and the mixture was shaken at 65° C. for five minutes, followed by returning to room temperature, and obtaining the supernatant, which procedure was repeated two times. To the supernatant, ½ amount of a solution of phenol/chloroform (1:1) was added, and the mixture was centrifuged to give a supernatant, an equal amount of chloroform was added, and the mixture was centrifuged to give a supernatant. To the supernatant, an equal amount of isopropanol containing 0.3 M sodium acetate was added, and the mixture was allowed to stand at room temperature for 30 minutes, after which the mixture was centrifuged to give sediment of the whole RNAs. Seventy % ethanol was added to the sediment, and the mixture was again centrifuged to give sediment, which was then dried and dissolved in water. mRNA was isolated from the whole RNAs as followings. In view of the fact that a poly A chain is attached to the 3′ terminus of mRNA, a polynucleotide having a poly T structure which was immobilized on the surface of latex beads was used to trap the mRNA, and then the mRNA was washed and eluted with spine column (Oligotex-dT30<Super>mRNA Purification Kit, Takara). Reverse transcription of the mRNA was conducted with a reverse transcriptase (Super Script II Reverse Transcriptase; catalogue No. 18064-014, GibcoBRL) using fluorescence-labeled nucleotides to give cDNAs that were introduced with Cy3-dUTP or Cy5-dUTP during the reverse transcription.\nThe labeled cDNAs were dissolved in TE buffer (10 mM Tris-HCl/1 mM EDTA, pH 8.0), and the solution was dropped on the DNA chip containing the whole genes of yeast (DNA Chip Research Inc. Japan) so that the cDNAs were hybridized on the DNA chip at 65° C. for over 12 hours. The fluoresces intensity of the DNA chip was read with a scanner, and the ratio relative to the fluorescence intensity resulting from the absence of chemical substance was estimated as the following, which is shown in Tables 1 to 9.\nIn the Tables, “Intensity” indicated in the rightmost column is a value of the level of expressed mRNA of each gene in control cells as divided by the average level of the expressions of the whole genes. A gene of which mRNA level is lower in control, and is higher in cases of addition of chemical substance, is especially useful in the detection of toxic substances.\nHere, when a ratio of an amount of mRNA expressed in the presence of the chemical substance to an amount of mRNA expressed in the absence of the chemical substance is two or more, then it is considered significant."}
{"compound": "[Cl][Hg][Cl]", "note": "[(3), HgCl2]", "values": [{"measurement": "level of expressed mRNA in the presence of chemical substance / level in the absence of chemical substance", "setting": "yeast gene YDR128W", "result": 1.4}, {"measurement": "level of expressed mRNA in the presence of chemical substance / level in the absence of chemical substance", "setting": "yeast gene YDR133C", "result": 2.9}, {"measurement": "level of expressed mRNA in the presence of chemical substance / level in the absence of chemical substance", "setting": "yeast gene YDR250C", "result": 0.9}, {"measurement": "level of expressed mRNA in the presence of chemical substance / level in the absence of chemical substance", "setting": "yeast gene YDR278C", "result": 0.9}, {"measurement": "level of expressed mRNA in the presence of chemical substance / level in the absence of chemical substance", "setting": "yeast gene YDR281C", "result": 0.4}, {"measurement": "The level of expressed mRNA in the presence of chemical substance/The level of expressed mRNA in the absence of chemical substance", "setting": "yeast gene YDR330W", "result": 1.2}, {"measurement": "level of expressed mRNA in the presence of chemical substance / level in the absence of chemical substance", "setting": "yeast gene YDR366C", "result": 0.8}, {"measurement": "The level of expressed mRNA in the presence of chemical substance/The level of expressed mRNA in the absence of chemical substance", "setting": "yeast gene YDR411C", "result": 1.8}, {"measurement": "The level of expressed mRNA in the presence of chemical substance/The level of expressed mRNA in the absence of chemical substance", "setting": "yeast gene YDR511W", "result": 0.9}, {"measurement": "The level of expressed mRNA in the presence of chemical substance/The level of expressed mRNA in the absence of chemical substance", "setting": "yeast gene YDR545W", "result": 0.6}, {"measurement": "The level of expressed mRNA in the presence of chemical substance/The level of expressed mRNA in the absence of chemical substance", "setting": "yeast gene YEL001C", "result": 1.4}, {"measurement": "The level of expressed mRNA in the presence of chemical substance/The level of expressed mRNA in the absence of chemical substance", "setting": "yeast gene YER004W", "result": 1.9}, {"measurement": "The level of expressed mRNA in the presence of chemical substance/The level of expressed mRNA in the absence of chemical substance", "setting": "yeast gene YER035W", "result": 1.6}, {"measurement": "The level of expressed mRNA in the presence of chemical substance/The level of expressed mRNA in the absence of chemical substance", "setting": "yeast gene YER079W", "result": 1.9}, {"measurement": "The level of expressed mRNA in the presence of chemical substance/The level of expressed mRNA in the absence of chemical substance", "setting": "yeast gene YER106W", "result": 1.3}, {"measurement": "The level of expressed mRNA in the presence of chemical substance/The level of expressed mRNA in the absence of chemical substance", "setting": "yeast gene YER158C", "result": 0.9}, {"measurement": "The level of expressed mRNA in the presence of chemical substance/The level of expressed mRNA in the absence of chemical substance", "setting": "yeast gene YER163C", "result": 1.2}, {"measurement": "The level of expressed mRNA in the presence of chemical substance/The level of expressed mRNA in the absence of chemical substance", "setting": "yeast gene YER175C", "result": 1.3}, {"measurement": "The level of expressed mRNA in the presence of chemical substance/The level of expressed mRNA in the absence of chemical substance", "setting": "yeast gene YFL006W", "result": 1.6}, {"measurement": "The level of expressed mRNA in the presence of chemical substance/The level of expressed mRNA in the absence of chemical substance", "setting": "yeast gene YFL010C", "result": 1.3}, {"measurement": "The level of expressed mRNA in the presence of chemical substance/The level of expressed mRNA in the absence of chemical substance", "setting": "yeast gene YFL024C", "result": 1.1}, {"measurement": "The level of expressed mRNA in the presence of chemical substance/The level of expressed mRNA in the absence of chemical substance", "setting": "yeast gene YFL032W", "result": 1.6}, {"measurement": "level of expressed mRNA in the presence of chemical substance / level in the absence of chemical substance", "setting": "yeast gene YFR026C", "result": 1.0}, {"measurement": "The level of expressed mRNA in the presence of chemical substance/The level of expressed mRNA in the absence of chemical substance", "setting": "yeast gene YGL037C", "result": 6.5}, {"measurement": "The level of expressed mRNA in the presence of chemical substance/The level of expressed mRNA in the absence of chemical substance", "setting": "yeast gene YGL047W", "result": 1.6}, {"measurement": "The level of expressed mRNA in the presence of chemical substance/The level of expressed mRNA in the absence of chemical substance", "setting": "yeast gene YGL053W", "result": 1.2}, {"measurement": "level of expressed mRNA in the presence of chemical substance / level in the absence of chemical substance", "setting": "yeast gene YGL088W", "result": 0.9}, {"measurement": "The level of expressed mRNA in the presence of chemical substance/The level of expressed mRNA in the absence of chemical substance", "setting": "yeast gene YGL121C", "result": 1.4}, {"measurement": "The level of expressed mRNA in the presence of chemical substance/The level of expressed mRNA in the absence of chemical substance", "setting": "yeast gene YGL199C", "result": 1.7}, {"measurement": "level of expressed mRNA in the presence of chemical substance / level in the absence of chemical substance", "setting": "yeast gene YGR038W", "result": 3.5}, {"measurement": "The level of expressed mRNA in the presence of chemical substance/The level of expressed mRNA in the absence of chemical substance", "setting": "yeast gene YGR101W", "result": 1.2}, {"measurement": "The level of expressed mRNA in the presence of chemical substance/The level of expressed mRNA in the absence of chemical substance", "setting": "yeast gene YGR110W", "result": 2.2}, {"measurement": "The level of expressed mRNA in the presence of chemical substance/The level of expressed mRNA in the absence of chemical substance", "setting": "yeast gene YGR130C", "result": 0.6}, {"measurement": "level of expressed mRNA in the presence of chemical substance / level in the absence of chemical substance", "setting": "yeast gene YGR139W", "result": 0.8}, {"measurement": "The level of expressed mRNA in the presence of chemical substance/The level of expressed mRNA in the absence of chemical substance", "setting": "yeast gene YGR154C", "result": 2.2}, {"measurement": "The level of expressed mRNA in the presence of chemical substance/The level of expressed mRNA in the absence of chemical substance", "setting": "yeast gene YGR221C", "result": 0.9}, {"measurement": "level of expressed mRNA in the presence of chemical substance / level in the absence of chemical substance", "setting": "yeast gene YGR243W", "result": 9.4}, {"measurement": "level of expressed mRNA in the presence of chemical substance / level in the absence of chemical substance", "setting": "yeast gene YGR293C", "result": 1.6}, {"measurement": "level of expressed mRNA in the presence of chemical substance / level in the absence of chemical substance", "setting": "yeast gene YHL006C", "result": 0.9}, {"measurement": "level of expressed mRNA in the presence of chemical substance / level in the absence of chemical substance", "setting": "yeast gene YHR095W", "result": 1.5}, {"measurement": "level of expressed mRNA in the presence of chemical substance / level in the absence of chemical substance", "setting": "yeast gene YHR105W", "result": 2.4}, {"measurement": "The level of expressed mRNA in the presence of chemical substance/The level of expressed mRNA in the absence of chemical substance", "setting": "yeast gene YHR138C", "result": 2.2}, {"measurement": "level of expressed mRNA in the presence of chemical substance / level in the absence of chemical substance", "setting": "yeast gene YHR181W", "result": 2.4}, {"measurement": "The level of expressed mRNA in the presence of chemical substance/The level of expressed mRNA in the absence of chemical substance", "setting": "yeast gene YHR199C", "result": 3.2}, {"measurement": "The level of expressed mRNA in the presence of chemical substance/The level of expressed mRNA in the absence of chemical substance", "setting": "yeast gene YIL023C", "result": 2.1}, {"measurement": "The level of expressed mRNA in the presence of chemical substance/The level of expressed mRNA in the absence of chemical substance", "setting": "yeast gene YIL041W", "result": 2.1}, {"measurement": "The level of expressed mRNA in the presence of chemical substance/The level of expressed mRNA in the absence of chemical substance", "setting": "yeast gene YIL087C", "result": 3.4}, {"measurement": "level of expressed mRNA in the presence of chemical substance / level in the absence of chemical substance", "setting": "yeast gene YIL127C", "result": 0.2}, {"measurement": "level of expressed mRNA in the presence of chemical substance / level in the absence of chemical substance", "setting": "yeast gene YJL017W", "result": 3.5}, {"measurement": "level of expressed mRNA in the presence of chemical substance / level in the absence of chemical substance", "setting": "yeast gene YJL037W", "result": 1.4}, {"measurement": "The level of expressed mRNA in the presence of chemical substance/The level of expressed mRNA in the absence of chemical substance", "setting": "yeast gene YJL057C", "result": 1.6}, {"measurement": "The level of expressed mRNA in the presence of chemical substance/The level of expressed mRNA in the absence of chemical substance", "setting": "yeast gene YJL066C", "result": 1.2}, {"measurement": "The level of expressed mRNA in the presence of chemical substance/The level of expressed mRNA in the absence of chemical substance", "setting": "yeast gene YJL082W", "result": 2.4}]}
